Measurements taken from ChEMBL document CHEMBL1149532, “Identification of 2-(4,5,6,7-tetrahydro-1H-pyrrolo[3,2-c]pyridin-3-yl)-ethylamine derivatives as novel GnRH receptor antagonists” (Bioorg Med Chem Lett, 2007).
Calls of active or inactive are those of the source. The rule behind the calls is not given here.

Legend:
[1] = target: T1, Gonadotropin-releasing hormone receptor (Homo sapiens, UniProt P30968); assay: Inhibition of human GnRHR expressed in RBL cells assessed as inhibition of GnRH-stimulated [3H]inositol phosphate hydrolysis; assay type: functional, cell-based
T1 sequence (P30968 whole entry): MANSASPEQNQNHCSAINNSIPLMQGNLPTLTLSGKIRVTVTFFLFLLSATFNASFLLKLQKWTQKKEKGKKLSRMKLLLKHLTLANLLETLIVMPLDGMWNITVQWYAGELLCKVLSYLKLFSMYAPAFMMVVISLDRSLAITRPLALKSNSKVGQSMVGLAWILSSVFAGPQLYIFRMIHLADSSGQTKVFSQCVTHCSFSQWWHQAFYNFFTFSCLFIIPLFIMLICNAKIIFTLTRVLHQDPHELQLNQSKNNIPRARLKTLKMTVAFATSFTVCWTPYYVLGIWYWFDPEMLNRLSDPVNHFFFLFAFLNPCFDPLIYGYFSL

[2] = target: T2, Gonadotropin-releasing hormone receptor (Rattus norvegicus, UniProt P30969); assay: Displacement of [125I]-Tyr5, DLeu6, NMeLeu7, Pro-N-Et-GnRH from cloned rat GnRHR
T2 sequence (P30969 whole entry): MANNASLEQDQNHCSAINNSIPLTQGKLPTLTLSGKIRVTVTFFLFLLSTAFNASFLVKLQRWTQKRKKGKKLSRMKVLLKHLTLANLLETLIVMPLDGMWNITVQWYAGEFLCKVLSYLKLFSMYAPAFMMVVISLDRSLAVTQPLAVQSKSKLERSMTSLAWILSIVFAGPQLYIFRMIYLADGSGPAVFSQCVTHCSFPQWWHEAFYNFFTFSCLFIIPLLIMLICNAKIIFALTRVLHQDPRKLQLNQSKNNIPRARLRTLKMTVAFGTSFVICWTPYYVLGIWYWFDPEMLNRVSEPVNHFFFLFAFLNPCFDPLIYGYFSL

[3] = target: T2, Gonadotropin-releasing hormone receptor; assay: Inhibition of GnRHR in rat pituitary cells assessed as inhibition of GnRH-stimulated LH release; assay type: functional, cell-based, Pituitary gland cell
[4] = target: T3, Gonadotropin-releasing hormone receptor (Rattus norvegicus) (UniProt P30969); assay: Decrease in LH concentration in rat plasma at 1.5 mg/kg, ip after 24 hrs by radioimmunoassay; assay type: functional, organism-based; parameters: dose 1.5 mg/kg
T3 sequence (whole entry): T2 sequence (P30969 whole entry)

[5] = target: T3, Gonadotropin-releasing hormone receptor (Rattus norvegicus); assay: Decrease in LH concentration in rat plasma at 15 mg/kg, ip after 24 hrs by radioimmunoassay; assay type: functional, organism-based; parameters: dose 15 mg/kg
[6] = AUC in rat at 1.5 mg/kg, ip after 24 hrs; assay type: ADME, organism-based; parameters: time < 24 hr, dose 1.5 mg/kg, route intraperitoneal; details: plasma
[7] = AUC in rat at 4.5 mg/kg, ip after 24 hrs; assay type: ADME, organism-based; parameters: time < 24 hr, dose 4.5 mg/kg, route intraperitoneal; details: plasma
[8] = AUC in rat at 15 mg/kg, ip after 24 hrs; assay type: ADME, organism-based; parameters: time < 24 hr, dose 15 mg/kg, route intraperitoneal; details: plasma

SMILES | IC50 [1] | Ki [2] | IC50 [3] | also measured
CC(=O)N1CCc2[nH]c(-c3cc(C)cc(C)c3)c([C@H](C)CNCCc3ccncc3)c2C1 | 8090 nM | 120 nM | – | –
Cc1cc(C)cc(-c2[nH]c3c(c2[C@H](C)CNCCC2CCOCC2)CN(C(=O)Cc2c(F)cccc2C(F)(F)F)CC3)c1 | 205 nM | 4.7 nM | 480 nM | –
Cc1cc(C)cc(-c2[nH]c3c(c2[C@H](C)CNCCc2ccc4nc(C)[nH]c4c2)CN(C(=O)Cc2c(F)cccc2C(F)(F)F)CC3)c1 | 87 nM | 1 nM | – | –
Cc1cc(C)cc(-c2[nH]c3c(c2[C@H](C)CNCCc2ccc(C(=O)O)cc2)CN(C(=O)Cc2c(F)cccc2C(F)(F)F)CC3)c1 | 22 nM | 2 nM | – | –
Cc1cc(C)cc(-c2[nH]c3c(c2[C@H](C)CNCc2ccc(-c4nnn[nH]4)cc2)CN(C(=O)Cc2c(F)cccc2C(F)(F)F)CC3)c1 | 1600 nM | 1600 nM | – | –
Cc1cc(C)cc(-c2[nH]c3c(c2[C@H](C)CNCCc2ccncc2)CN(C(=O)C2C(C)(C)C2(C)C)CC3)c1 | 475 nM | 1.3 nM | 96 nM | –
Cc1cc(C)cc(-c2[nH]c3c(c2[C@H](C)CNCCc2ccc4nn[nH]c4c2)CN(C(=O)Cc2c(F)cccc2C(F)(F)F)CC3)c1 | 26 nM | 0.5 nM | 1.2 nM | –
Cc1cc(C)cc(-c2[nH]c3c(c2[C@H](C)CNCCc2ccc(-c4nnn[nH]4)cc2)CN(C(=O)Cc2c(F)cccc2C(F)(F)F)CC3)c1 | 1.5 nM | 0.2 nM | 0.6 nM | Activity [4]: Dose-dependent effect; Activity [5]: Active; AUC at 24 h [6]: 1290 ng·h/mL; AUC at 24 h [7]: 2470 ng·h/mL; AUC at 24 h [8]: 6500 ng·h/mL
Cc1cc(C)cc(-c2[nH]c3c(c2[C@H](C)CNCCc2ccncc2)CN(C(=O)Cc2ccccc2C(F)(F)F)CC3)c1 | 86 nM | 1.5 nM | 47 nM | –
Cc1cc(C)cc(-c2[nH]c3c(c2[C@H](C)CNCCOc2ccc(-c4nnn[nH]4)cc2)CN(C(=O)Cc2c(F)cccc2C(F)(F)F)CC3)c1 | 63 nM | 6.2 nM | – | –
Cc1cc(C)cc(-c2[nH]c3c(c2[C@H](C)CNCCc2ccncc2)CN(C(=O)C2CCCC2)CC3)c1 | 3480 nM | 18 nM | 250 nM | –
Cc1cc(C)cc(-c2[nH]c3c(c2[C@H](C)CN)CN(C(=O)Cc2c(F)cccc2C(F)(F)F)CC3)c1 | 4180 nM | 470 nM | – | –
Cc1cc(C)cc(-c2[nH]c3c(c2[C@H](C)CNCCc2ccncc2)CNCC3)c1 | > 10000 nM | > 10000 nM | – | –
Cc1cc(C)cc(-c2[nH]c3c(c2[C@H](C)CNCCc2ccc(=O)n(C)c2)CN(C(=O)Cc2c(F)cccc2C(F)(F)F)CC3)c1 | 32 nM | 0.4 nM | – | –
COc1ccccc1CC(=O)N1CCc2[nH]c(-c3cc(C)cc(C)c3)c([C@H](C)CNCCc3ccncc3)c2C1 | 462 nM | 5.6 nM | – | –
CCn1c(=O)[nH]c2cc(CCNC[C@@H](C)c3c(-c4cc(C)cc(C)c4)[nH]c4c3CN(C(=O)Cc3c(F)cccc3C(F)(F)F)CC4)ccc2c1=O | 91 nM | 1.8 nM | – | –
Cc1cc(C)cc(-c2[nH]c3c(c2[C@H](C)CNCCc2ccncc2)CN(C(=O)c2ccccc2)CC3)c1 | > 10000 nM | 660 nM | – | –
Cc1cc(C)cc(-c2[nH]c3c(c2[C@H](C)CNCCc2ccncc2)CN(C(=O)Cc2ccccc2Cl)CC3)c1 | 267 nM | 2.6 nM | – | –
Cc1cc(C)cc(-c2[nH]c3c(c2[C@H](C)CNCCc2ccncc2)CN(C(=O)Cc2ccccc2)CC3)c1 | 1110 nM | 4.5 nM | 110 nM | –
Cc1cc(C)cc(-c2[nH]c3c(c2[C@H](C)CNCCc2ccc(-c4nnn[nH]4)nc2)CN(C(=O)Cc2c(F)cccc2C(F)(F)F)CC3)c1 | 7 nM | 0.6 nM | 44 nM | –
Cc1cc(C)cc(-c2[nH]c3c(c2[C@H](C)CNCCc2ccncc2)CN(C(=O)Cc2ccccc2F)CC3)c1 | 271 nM | 1.8 nM | 280 nM | –
Cc1cc(C)cc(-c2[nH]c3c(c2[C@H](C)CNCCc2ccncc2)CN(C(=O)C24CC5CC(CC(C5)C2)C4)CC3)c1 | 546 nM | 1.5 nM | 63 nM | –
Cc1cc(C)cc(-c2[nH]c3c(c2[C@H](C)CNCCc2ccncc2)CN(C(=O)Cc2c(F)cccc2C(F)(F)F)CC3)c1 | 62 nM | 0.5 nM | 57 nM | –
Cc1cc(C)cc(-c2[nH]c3c(c2[C@H](C)CNCCc2cc4[nH]nnc4cc2F)CN(C(=O)Cc2c(F)cccc2C(F)(F)F)CC3)c1 | 16 nM | 0.7 nM | 28 nM | –
Cc1cc(C)cc(-c2[nH]c3c(c2[C@H](C)CNCCc2ccc4nccnc4c2)CN(C(=O)Cc2c(F)cccc2C(F)(F)F)CC3)c1 | 60 nM | 0.3 nM | 68 nM | –
Cc1cc(C)cc(-c2[nH]c3c(c2[C@H](C)CNCCc2cnc4nn[nH]c4c2)CN(C(=O)Cc2c(F)cccc2C(F)(F)F)CC3)c1 | 9 nM | 0.6 nM | 6.4 nM | –
